In ChEMBL document CHEMBL5441445, “ASAP - In vitro CYP inhibition pooled” (2024):

How the values were obtained:
Format in all cases: ADME
Cytochrome P450 2C19 = Cytochrome P450 2C19 (Homo sapiens, UniProt P33261); assay: (§1) The compounds are incubated at 0, 0.15, 0.5, 1.5, 5, 15 and 50 uM concentration at 37 C, CYP2C19 is pooled in a ratio such that biotransformation of each probe substrate is specific for the CYP450. Substrates (at their Km) are also pooled within the same solution to create an enzyme-substrate stock and test compound is added. The final solvent concentration is 1% DMSO. After equilibration to 37 C, addition of NADPH initiates substrate biotransformation. The incubation is stopped at 10 min by methanol containing internal standard. The quenched samples are centrifuged to precipitate the protein and the supernatants are analyzed by LC-MS/MS to measure metabolite formation. IC50 of test compounds against CYP2C19 is calculated. The assay has been performed by Concept Life Sciences Ltd.
Cytochrome P450 2D6 = Cytochrome P450 2D6 (Homo sapiens, UniProt P10635); assay: as §1, with “CYP2D6” for “CYP2C19”
Cytochrome P450 2C9 = Cytochrome P450 2C9 (Homo sapiens, UniProt P11712); assay: as §1, with “CYP2C9” for “CYP2C19”
Cytochrome P450 1A2 = target: T1, Cytochrome P450 1A2 (Homo sapiens, UniProt P05177); assay: as §1, with “CYP1A2” for “CYP2C19”
T1 sequence (P05177 whole entry): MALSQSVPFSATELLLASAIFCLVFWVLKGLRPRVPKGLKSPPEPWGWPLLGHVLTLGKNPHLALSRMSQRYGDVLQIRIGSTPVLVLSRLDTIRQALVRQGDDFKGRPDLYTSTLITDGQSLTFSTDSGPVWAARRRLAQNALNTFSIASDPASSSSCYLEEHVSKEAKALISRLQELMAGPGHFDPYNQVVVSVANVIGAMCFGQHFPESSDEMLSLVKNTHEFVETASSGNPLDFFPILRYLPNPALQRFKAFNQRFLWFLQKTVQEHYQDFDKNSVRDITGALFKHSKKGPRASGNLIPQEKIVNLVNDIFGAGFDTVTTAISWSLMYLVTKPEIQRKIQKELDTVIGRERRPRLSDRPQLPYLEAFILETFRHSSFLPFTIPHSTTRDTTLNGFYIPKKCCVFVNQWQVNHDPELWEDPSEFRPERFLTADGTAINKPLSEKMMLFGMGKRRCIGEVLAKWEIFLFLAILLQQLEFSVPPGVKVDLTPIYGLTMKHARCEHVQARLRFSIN

Cytochrome P450 3A4 = Cytochrome P450 3A4 (Homo sapiens, UniProt P08684); assay: as §1, with “CYP3A4” for “CYP2C19”
Cytochrome P450 3A4, sequence (P08684 whole entry): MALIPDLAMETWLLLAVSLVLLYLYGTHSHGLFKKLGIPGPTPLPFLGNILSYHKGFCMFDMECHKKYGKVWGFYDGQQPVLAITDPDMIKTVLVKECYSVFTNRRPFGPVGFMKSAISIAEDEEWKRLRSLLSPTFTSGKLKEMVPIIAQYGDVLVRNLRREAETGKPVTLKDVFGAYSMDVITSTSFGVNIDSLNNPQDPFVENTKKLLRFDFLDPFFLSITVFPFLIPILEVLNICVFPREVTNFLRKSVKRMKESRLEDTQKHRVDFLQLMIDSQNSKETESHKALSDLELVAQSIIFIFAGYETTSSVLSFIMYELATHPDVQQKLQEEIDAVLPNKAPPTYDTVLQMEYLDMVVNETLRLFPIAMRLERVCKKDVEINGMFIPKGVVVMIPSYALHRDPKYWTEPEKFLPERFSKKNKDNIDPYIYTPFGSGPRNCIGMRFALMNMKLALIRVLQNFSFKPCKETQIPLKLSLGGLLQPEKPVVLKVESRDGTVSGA

Cytochrome P450 2D6, sequence (P10635 whole entry): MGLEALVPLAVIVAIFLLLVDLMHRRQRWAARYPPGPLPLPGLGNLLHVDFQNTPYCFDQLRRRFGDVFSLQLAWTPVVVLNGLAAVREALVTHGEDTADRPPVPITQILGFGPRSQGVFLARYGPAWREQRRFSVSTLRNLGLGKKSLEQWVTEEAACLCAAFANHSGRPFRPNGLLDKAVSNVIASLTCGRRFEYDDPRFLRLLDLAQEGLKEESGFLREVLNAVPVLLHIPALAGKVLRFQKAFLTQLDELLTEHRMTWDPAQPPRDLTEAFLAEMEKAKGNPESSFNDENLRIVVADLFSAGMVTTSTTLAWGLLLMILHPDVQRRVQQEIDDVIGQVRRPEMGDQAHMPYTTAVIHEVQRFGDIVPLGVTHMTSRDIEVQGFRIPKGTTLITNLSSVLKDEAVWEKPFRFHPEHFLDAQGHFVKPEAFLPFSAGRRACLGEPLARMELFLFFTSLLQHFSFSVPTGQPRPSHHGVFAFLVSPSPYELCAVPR
Cytochrome P450 2C19, sequence (P33261 whole entry): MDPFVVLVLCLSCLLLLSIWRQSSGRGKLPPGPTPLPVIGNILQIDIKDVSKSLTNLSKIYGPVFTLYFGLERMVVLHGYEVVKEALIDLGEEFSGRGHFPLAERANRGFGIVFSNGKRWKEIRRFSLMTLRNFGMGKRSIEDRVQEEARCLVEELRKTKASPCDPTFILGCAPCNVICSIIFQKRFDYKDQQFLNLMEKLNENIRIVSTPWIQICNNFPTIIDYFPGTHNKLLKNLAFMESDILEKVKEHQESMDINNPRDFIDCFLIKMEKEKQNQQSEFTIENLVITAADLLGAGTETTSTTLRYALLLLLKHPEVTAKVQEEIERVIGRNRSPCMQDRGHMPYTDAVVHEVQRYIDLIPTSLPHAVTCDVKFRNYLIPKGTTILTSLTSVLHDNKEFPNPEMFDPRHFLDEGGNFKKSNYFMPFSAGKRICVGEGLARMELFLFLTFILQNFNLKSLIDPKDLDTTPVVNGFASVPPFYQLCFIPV
Cytochrome P450 2C9, sequence (P11712 whole entry): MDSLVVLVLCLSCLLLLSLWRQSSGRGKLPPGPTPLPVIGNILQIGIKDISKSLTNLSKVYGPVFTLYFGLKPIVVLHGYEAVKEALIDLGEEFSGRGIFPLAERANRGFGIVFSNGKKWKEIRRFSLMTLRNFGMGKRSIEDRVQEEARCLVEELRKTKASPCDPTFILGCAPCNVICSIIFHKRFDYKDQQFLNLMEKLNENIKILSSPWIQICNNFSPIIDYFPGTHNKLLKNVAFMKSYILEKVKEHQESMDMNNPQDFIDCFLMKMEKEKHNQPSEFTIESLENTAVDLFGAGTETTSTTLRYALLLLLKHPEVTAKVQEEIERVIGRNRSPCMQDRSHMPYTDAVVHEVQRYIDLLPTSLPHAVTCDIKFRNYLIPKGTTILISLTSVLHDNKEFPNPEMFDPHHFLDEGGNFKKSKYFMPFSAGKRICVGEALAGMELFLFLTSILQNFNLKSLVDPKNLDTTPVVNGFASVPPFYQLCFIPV

Structure (SMILES)	IC50 (Cytochrome P450 2C19) [µM]	IC50 (Cytochrome P450 2D6) [µM]	IC50 (Cytochrome P450 2C9) [µM]	IC50 (Cytochrome P450 1A2) [µM]	IC50 (Cytochrome P450 3A4) [µM]
CC(C)[C@@H](Nc1ncnc2[nH]c(-c3cnn(C)c3C#N)cc12)c1ccc2c(n1)OCCO2	9.51	22.7	4.34	8.86	2.07
C[C@H](C(=O)O)[C@@H](NC(=O)c1ncnc2[nH]ccc12)c1ccc(Br)cc1	> 50	> 50	5.14	> 50	> 50
CC(C)[C@H](Nc1ncnc2[nH]ccc12)c1ccc2c(c1)S(=O)(=O)CCC2	15	> 50	18.2	> 50	3.2
CC(C)[C@@H](Nc1ncnc2[nH]c(C(=O)N[C@@H]3CCN(C)C3)cc12)c1ccc2c(c1)S(=O)(=O)CCC2	> 50	> 50	> 50	> 50	> 50

Results, then the compound that gave them:

IC50 (Cytochrome P450 2C19) [µM]	IC50 (Cytochrome P450 2D6) [µM]	IC50 (Cytochrome P450 2C9) [µM]	IC50 (Cytochrome P450 1A2) [µM]	IC50 (Cytochrome P450 3A4) [µM]	Structure (SMILES)
16.9	27.7	5.93	35.2	3.69	CC(C)[C@H](Nc1ncnc2[nH]c(-c3cnn(C)c3C#N)cc12)c1ccc2c(n1)OCCO2
34.7	48.2	29	44.1	3.1	CNC(=O)Cn1cc(-c2cc3c(N[C@@H](c4ccc5c(c4)S(=O)(=O)CCC5)C(C)C)ncnc3[nH]2)cn1
> 50	> 50	31.2	> 50	25.4	COc1ccc([C@H](Cc2nnn[nH]2)NC(=O)c2ncnc3[nH]ccc23)cc1
> 50	20.5	42.6	> 50	8.79	Cn1ncc(-c2cc3c(N[C@@H](c4ccc5c(n4)OCCO5)C(C)(C)C)ncnc3[nH]2)c1C#N
22.6	9.03	5.25	49.3	1.81	CNCc1cc(-c2cc3c(N[C@@H](c4ccc5c(c4)S(=O)(=O)CCC5)C(C)C)ncnc3[nH]2)co1
